The structures appear in SMILES notation.

Common to all, as to format: physicochemical
Series [1] in a line: Appearance of polyketone in water at 20% w/v. Here is the method: (§1) To a solution or dispersion of the polyketone (1 g in 5 mL of distilled water) is added hydrazide (0.9 stoichiometric equivalents of acyl hydrazide moiety compared to ketone functional group).
The nature of series [2]: Film formation of cast polyhydrazone material. As to conditions: for Cast material: cast from water. Here is the method:
as §1

A short description of series [3]: Appearance of aqueous composition on hydrazide addition (polyhydrazone formation). As to conditions: appearance in water; for Polyhydrazone from 0.9 eq Formula II-B addition / Polyhydrazone from 0.9 eq Formula II-C addition: polyketone 20% w/v; for Polyhydrazone from 0.9 eq ADH addition: polyketone 20% w/v + 0.9 eq ADH. Here is the method:
as §1

The nature of series [4]: Glass transition temperature by DSC. As to conditions: for Tg: polyhydrazone from polyketone + 0.9 eq ADH, DSC. Here is the method: Glass transition temperatures (Tg) are measured by differential scanning calorimetry (DSC). Samples were prepared by compressing 2-20 mg of material into a 40 μL pierced aluminium pan and were scanned between −40° and +180° C. at either 10° C./min or 5° C./min. The samples were heated and cooled three times and Tg data were obtained from the second and third sweep; ignoring the initial annealing and desolvating sweep. Tg were determined by observation of the rate of change of slope and baseline shift for the glass and plastic states.
as §1

Series [5] in a line: Appearance of aqueous composition on hydrazide addition (polyhydrazone formation). As to conditions: water.
A short description of series [6]: Polyhydrazone formation in ACN, ACN/water, THF/water or water at 20-50% w/v. As to conditions: appearance.
Where [7] appears, read: polyhydrazone from polyketone + 0.9 eq ADH.
[8] abbreviates: polyhydrazone from (7) and formula II-C, cast film.

For the compound `CC(=O)CCC(=O)OCCOC(=O)CCC(C)=O` [Polyketone compound (1), Ethyleneglycol Dilevulinate], the “Polyketone in water at 20% w/v” value in series [1] (1 g in 5 mL distilled water) and in series [1] (second table) was “Clear solution” each time. For the same compound, the Cast material entry in series [2] (setting [7]) is “Shiny soft well adhered”. Moreover, the “Polyhydrazone from 0.9 eq Formula II-B addition” value in series [3] is reported as “White precipitate”. For the same compound, in series [3], the “Polyhydrazone from 0.9 eq ADH addition” value is given as “Clear solution”. In addition, the figures for the “Polyhydrazone from 0.9 eq Formula II-C addition” value in series [3] (initially after hydrazide addition) and in series [3] (subsequently after hydrazide addition) were “Clear solution” and “precipitate forms”, respectively. Also, the Tg in series [4] stood at 37 °C.
For the compound `CC(=O)CCC(=O)OCCOCCOC(=O)CCC(C)=O` [Polyketone compound (2), Diethyleneglycol Dilevulinate], the “Polyketone in water at 20% w/v” value in series [1] (1 g in 5 mL distilled water) is listed as “Clear solution”. In series [1] (second table), the “Polyketone in water at 20% w/v” value is “Clear solution”. In series [2] (setting [7]), the “Time over which cast film hardened” value was “hardened over 5-days” and the Cast material entry is given as “Soft easily marked film that”. In series [3], the “Polyhydrazone from 0.9 eq Formula II-B addition” value was “Cloudy solution, gel”; the “Polyhydrazone from 0.9 eq Formula II-C addition” value was “Cloudy solution,”; the “Polyhydrazone from 0.9 eq ADH addition” value was “Clear solution”. Further, the Tg in series [4] is 27 °C.
For `CC(=O)CCC(=O)OCC(COC(=O)CCC(C)=O)OC(=O)CCC(C)=O` [Polyketone compound (3), Glycerol Trilevulinate], in series [1] (1 g in 5 mL distilled water), the “Polyketone in water at 20% w/v” value is given as “Unstable emulsion”. Besides, the Cast material result in series [2] (setting [7]) is given as “Hard shiny well adhered”. Further, the “Polyhydrazone from 0.9 eq ADH addition” value in series [3] was “Gels upon”. In addition, the Tg in series [4] was 60 °C.
`CC(=O)CCC(=O)OCCN(CCOC(=O)CCC(C)=O)CCOC(=O)CCC(C)=O` [Polyketone compound (6), Triethanolamine Trilevulinate]: the “Polyketone in water at 20% w/v” value in series [1] (1 g in 5 mL distilled water) is “Clear solution”. Moreover, in series [1] (second table), the “Polyketone in water at 20% w/v” value was “Clear solution”. The “Polyhydrazone from 0.9 eq ADH addition, at higher concentrations” value in series [5] is “Gels at higher”. In addition, in series [3], the “Polyhydrazone from 0.9 eq Formula II-B addition” value was “No reaction”, the “Polyhydrazone from 0.9 eq Formula II-C addition” value is listed as “Forms white solid” and the “Polyhydrazone from 0.9 eq ADH addition” value is given as “Clear solution”. Further, the Tg in series [4] was 38 °C.
For the compound `CC(=O)CCC(=O)OC(C)C(C)OC(=O)CCC(C)=O` (stereo not drawn) [Polyketone compound (7), 2,3-Butanediol Dilevulinate], the “Polyketone in water at 20% w/v” value in series [1] (1 g in 5 mL distilled water) is “Unstable emulsion”. Also, in series [6], the “Polyhydrazone from 0.9 eq ADH in ACN at 50% w/v” value was “Pale yellow solid”, the “Polyhydrazone from 0.9 eq ADH in water at 50% w/v” value is “Pale yellow gel” and the “Polyhydrazone from 0.9 eq. Formula II-C in ACN at 50% w/v” value was “Yellow oil”. The “Cast film of polyhydrazone oil” value in series [2] (polyhydrazone from (7) and formula II-C) is reported as “strong brittle film”. Moreover, the Cast material entry in series [2] (setting [7]) is on record as “Hard film”. Further, in series [3], the “Polyhydrazone from 0.9 eq ADH addition” value was “Opaque solution”. Further, in series [4] (setting [8]), the “Tg (annealed)” value turned out to be 20 °C and the “Tg (initial)” value came out at 38.5 °C. In addition, the Tg in series [4] came out at 121 °C.
Turning to `CC(=O)CCC(=O)OCc1ccc(COC(=O)CCC(C)=O)cc1` [Polyketone compound (8), 1,4-Dimethanolbenzene Dilevulinate], in series [6], the “Polyhydrazone from 0.9 eq ADH in ACN at 50% w/v” value is “Yellow oil formed” and the “Polyhydrazone from 0.9 eq ADH in water at 50% w/v” value is on record as “Pale yellow gel”.

Values taken from US20160237302A1, “WATERBORNE COMPOSITIONS” (VICTORIA LINK LIMITED, priority 2013, published 2016).
